Test results reported in patent US20040151761A1, “Methods and compositions utilizing astaxanthin” (priority 2003, published 2004).
“Also recorded” adds a separate entry of the source.

Key:
IgG and IgM = test: Plasma IgG and IgM in dogs (ELISA); assay type: in vivo, dog
Source text: Female Beagle dogs (9 to 10 mo old; 8.2±0.2 kg body weight; Covance Research Products Inc., Kalamazoo, Mich.) were randomly assigned ([…] concentrate from Haematococcus pluvialis, astraZanthin™, La Haye Laboratories, Redmond, Wash.) daily for 16 weeks. Astaxanthin was incorporated into a commercial basal diet (The Iams Co., Lewisburg, Ohio.) and fed two times daily (200 g food/d). The diet composition was as follows (g/kg): 85.3 moisture, 275.8 protein, 60.7 ash, 115.0 fat, 9.9 Ca, 9.3 P, 21.3 crude fiber, and 18,914 kJ/kg gross energy; the n-6:n-3 fatty acid ratio was 7.9. Dogs were housed in 2×3 m pens (2 dogs/pen) in a temperature (20 to 22° C.) and light-(14 hour light) controlled facility. Body weight was recorded on week 0, 4, 8, and 16. Blood was collected on wk 0, 6 and 12 for assessing immune function. All dogs were vaccinated (Vanguard 5™, Smithkline Beacham, West Chester, Pa.) twice on week 12 and 14 and blood again taken on week 16 to assess post-vaccination immune responses.
IgG and IgM. Concentrations of IgG (sheep anti-dog IgG; sensitivity=16 micrograms/L) and IgM (goat anti-dog IgM; sensitivity=31 micrograms/L) in plasma were analyzed by ELISA using a commercial kit (Bethyl Lab., Inc., Montgomery, Tex.).

[1] = tested on: humoral and cell-mediated immune responses; settings: cited from earlier work

CC1=C(/C=C/C(C)=C/C=C/C(C)=C/C=C/C=C(C)/C=C/C=C(C)/C=C/C2=C(C)C(=O)C(O)CC2(C)C)C(C)(C)CC(O)C1=O (stereo not drawn) [astaxanthin, 3,3′-dihydroxy-beta, beta-carotene-4,4′-dione]
plasma IgG concentration (IgG and IgM; 20 mg, post-vaccination week 16): higher; also recorded: highest concentrations of IgG and IgM
plasma IgG concentration (IgG and IgM; 20 mg, week 12): higher
plasma IgM concentration (IgG and IgM; 20 mg, week 16): significantly higher IgM concentrations; also recorded: highest concentrations of IgG and IgM
IgG production (IgG and IgM; higher (30 mg) dietary astaxanthin): did not produce the same stimulation
cell-mediated immune response ([1]; rodents (Chew et al., 1999b)): enhanced
T cell-mediated antibody production ([1]; rodents (Jyonouchi et al., 1994)): increased T cell-mediated antibody production
humoral immune response ([1]; rodents (Jyonouchi et al., 1995)): enhanced
